The target in one assay is human cyclin B-CDK1 (Homo sapiens, UniProt P06493). Briefly: FlashPlate kinase assay, cyclin B-CDK1, Rb substrate. Type of assay: biochemical. The conditions noted are these: recombinant cyclin B-CDK1, Rb phosphorylation, 1 μM ATP. In short, it runs like this:
(§1)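 Recombinant human cyclin–CDK complexes, co-expressed in insect cells, phosphorylated His-tagged Rb (aa 386-928) coated on FlashPlates at 10 μg/ml. Reaction used 1 μM ATP plus 4 nM ^33P-ATP and 20 mM MgCl2 for 30 min at room temperature. % inhibition came from scintillation counts against no-enzyme and no-compound wells, and IC50 was the concentration halving radiolabel incorporation.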

The subject of assay [1] is HCT116, a colorectal carcinoma cell line. Briefly: Tetrazolium dye proliferation assay (MTT assay). In kind it is cell-based. The conditions noted are these: Homo sapiens, HCT-116, HCT116 cells, inhibition of cell proliferation. In short, it runs like this:
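HCT116 cells in McCoy's 5A + 10% FCS, plated overnight, then dosed in duplicate with serial dilutions (final DMSO 0.3%) and incubated to growth-curve time points. MTT at 1 mg/ml for 2.5-3 h, formazan in ethanol, A570/650. IC50 by linear regression of log concentration vs % inhibition relative to blank and DMSO controls.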
A general note: Tetrazolium dyes change colour on reduction, which living cells bring about.

A further assay concerns the target human cyclin D1-CDK4 (Homo sapiens, UniProt P11802). Briefly: FlashPlate kinase assay, cyclin D1-CDK4, Rb substrate. The following applies: recombinant cyclin D1-CDK4, Rb phosphorylation, 1 μM ATP. In kind it is biochemical. In short, it runs like this: as §1
In a further assay the target is human cyclin E-CDK2 (Homo sapiens, UniProt P24941). Kind of assay: FlashPlate kinase assay, cyclin E-CDK2, Rb substrate. Type of assay: biochemical. The conditions noted are these: recombinant cyclin E-CDK2, Rb phosphorylation, 1 μM ATP. In short, it runs like this: as §1

Sequence of human cyclin D1-CDK4 (P11802 whole entry): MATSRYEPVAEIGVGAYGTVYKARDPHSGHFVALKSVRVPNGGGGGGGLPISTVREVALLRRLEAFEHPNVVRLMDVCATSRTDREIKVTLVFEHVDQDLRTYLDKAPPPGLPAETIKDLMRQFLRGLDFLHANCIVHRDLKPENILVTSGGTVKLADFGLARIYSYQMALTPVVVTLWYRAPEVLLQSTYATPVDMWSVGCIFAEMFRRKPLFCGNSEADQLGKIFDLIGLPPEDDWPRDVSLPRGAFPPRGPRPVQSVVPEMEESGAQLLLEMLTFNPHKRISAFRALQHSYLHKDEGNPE
Sequence of human cyclin D1-CDK4 (P24385 whole entry partner): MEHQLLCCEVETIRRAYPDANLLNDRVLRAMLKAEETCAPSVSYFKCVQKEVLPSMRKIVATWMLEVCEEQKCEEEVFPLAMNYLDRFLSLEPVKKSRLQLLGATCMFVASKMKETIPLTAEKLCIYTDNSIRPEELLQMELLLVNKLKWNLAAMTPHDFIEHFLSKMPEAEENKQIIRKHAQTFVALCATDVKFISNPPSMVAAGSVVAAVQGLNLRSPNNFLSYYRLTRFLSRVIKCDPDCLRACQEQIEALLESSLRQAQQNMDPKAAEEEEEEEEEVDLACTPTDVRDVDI
Sequence of human cyclin B-CDK1 (P06493 whole entry, the tested form may be a part): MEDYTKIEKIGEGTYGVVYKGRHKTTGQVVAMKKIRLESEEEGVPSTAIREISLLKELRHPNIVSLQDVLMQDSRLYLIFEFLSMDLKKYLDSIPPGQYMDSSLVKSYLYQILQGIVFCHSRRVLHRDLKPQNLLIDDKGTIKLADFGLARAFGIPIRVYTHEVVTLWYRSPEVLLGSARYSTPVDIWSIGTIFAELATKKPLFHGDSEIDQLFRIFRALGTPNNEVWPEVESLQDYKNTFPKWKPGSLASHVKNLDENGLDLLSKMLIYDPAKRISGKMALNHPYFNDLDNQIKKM
Sequence of human cyclin B-CDK1 (P14635 whole entry partner, the tested form may be a part): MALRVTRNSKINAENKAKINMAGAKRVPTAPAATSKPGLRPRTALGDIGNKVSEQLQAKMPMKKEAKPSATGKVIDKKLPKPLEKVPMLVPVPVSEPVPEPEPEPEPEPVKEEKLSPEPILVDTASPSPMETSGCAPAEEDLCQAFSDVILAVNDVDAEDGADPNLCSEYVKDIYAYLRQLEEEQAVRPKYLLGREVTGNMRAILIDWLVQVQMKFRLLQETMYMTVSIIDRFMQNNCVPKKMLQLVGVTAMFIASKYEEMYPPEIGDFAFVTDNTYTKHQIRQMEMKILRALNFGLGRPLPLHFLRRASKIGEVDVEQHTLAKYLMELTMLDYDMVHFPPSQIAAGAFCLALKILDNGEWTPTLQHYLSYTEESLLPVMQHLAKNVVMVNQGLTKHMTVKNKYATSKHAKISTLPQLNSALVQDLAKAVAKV

A word on the IC50: it is the concentration at which inhibition is half-maximal. Regarding `CCc1cccc(C(=O)c2sc(Nc3ccc(OC4CCNC4)cc3)nc2N)c1` (stereo not drawn) [Example 92, [4-Amino-2-[4-(pyrrolidin-3-yloxy)-phenylamino]-thiazol-5-yl)-(3-ethyl-phenyl)-methanone; Compound With Acetic Acid], the IC50 on human cyclin B-CDK1 is 538 nM; in assay [1], 1570 nM; at human cyclin D1-CDK4, 51 nM; on human cyclin E-CDK2, 495 nM.
For the compound `Nc1nc(Nc2ccc(OC3CCNC3)cc2)sc1C(=O)c1cccc(C2CC2)c1` (stereo not drawn) [Example 93, [4-Amino-2-[4-(pyrrolidin-3-yloxy)-phenylamino]-thiazol-5-yl]-(3-cyclopropyl-phenyl)-methanone; Compound With Acetic Acid], the IC50 stood at 859 nM on human cyclin B-CDK1, 2020 nM in assay [1], 42 nM on human cyclin D1-CDK4 and 1200 nM on human cyclin E-CDK2.
On to `COc1ccc(C(=O)c2sc(Nc3ccc(OC4CCNC4)cc3)nc2N)cc1F` (stereo not drawn) [Example 96, [4-Amino-2-[4-(pyrrolidin-3-yloxy)-phenylamino]-thiazol-5-yl]-(3-fluoro-4-methoxy-phenyl)-methanone], for which the IC50 on human cyclin B-CDK1 came out at 668 nM; in assay [1], 3290 nM; at human cyclin D1-CDK4, 39 nM; on human cyclin E-CDK2 it was 1440 nM.
For `CCNCCOc1ccc(Nc2nc(N)c(C(=O)c3cccc(C)c3)s2)cc1` [Example 100, [4-Amino-2-(4-(2-ethylamino-ethoxy)-phenylamino]-thiazol-5-yl]-m-tolyl-methanone; Compound With Acetic Acid], in that order: 731 nM, 880 nM, 43 nM and 1230 nM.
Turning to `CCNCCOc1ccc(Nc2nc(N)c(C(=O)c3cccc(CC)c3)s2)cc1` [Example 101, [4-Amino-2-[4-(2-ethylamino-ethoxy)-phenylamino]-thiazol-5-yl]-(3-ethyl-phenyl)-methanone; Compound With Acetic Acid], the IC50 at human cyclin B-CDK1 worked out at 660 nM; in assay [1], 685 nM; at human cyclin D1-CDK4, 21 nM; at human cyclin E-CDK2, 1110 nM.
In the case of `CCNCCOc1ccc(Nc2nc(N)c(C(=O)c3cccc(C4CC4)c3)s2)cc1` [Example 102, [4-Amino-2-[4-(2-ethylamino-ethoxy)-phenylamino]-thiazol-5-yl]-(3-cyclopropyl-phenyl)-methanone; Compound With Acetic Acid], the IC50 on human cyclin B-CDK1 came out at 883 nM; in assay [1], 738 nM; at human cyclin D1-CDK4 it was 26 nM; on human cyclin E-CDK2 it was 1690 nM.
With `CCNCCOc1ccc(Nc2nc(N)c(C(=O)c3ccc(C)c(F)c3)s2)cc1` [Example 103, [4-Amino-2-[4-(2-ethylamino-ethoxy)-phenylamino]-thiazol-5-yl]-(3-fluoro-4-methyl-phenyl)-methanone; Compound With Acetic Acid], the IC50 on human cyclin B-CDK1 was 432 nM; in assay [1] it was 1430 nM; on human cyclin D1-CDK4 it was 41 nM; on human cyclin E-CDK2, 1760 nM.
In the same order, the values of `CCNCCOc1ccc(Nc2nc(N)c(C(=O)c3ccc(F)c(CC)c3)s2)cc1` [Example 104, [4-Amino-2-[4-(2-ethylamino-ethoxy)-phenylamino]-thiazol-5-yl]-(3-ethyl-4-fluoro-phenyl)-methanone; Compound With Acetic Acid] are 3510 nM, 2450 nM, 52 nM and 3310 nM.
In the same order, the values of `CCCc1cc(C(=O)c2sc(Nc3ccc(OCCNCC)cc3)nc2N)ccc1O` [Example 105, [4-Amino-2-[4-(2-ethylamino-ethoxy)-phenylamino]-thiazol-5-yl]-(4-hydroxy-3-propyl-phenyl)-methanone; Compound With Acetic Acid] are 112 nM, 390 nM, 18 nM and 176 nM.
